Test results as given in ChEMBL document CHEMBL2150905, “Discovery of Disubstituted Imidazo[4,5-b]pyridines and Purines as Potent TrkA Inhibitors” (ACS Med Chem Lett, 2012).
Converted amounts (≈) assume the structure as drawn. Blank lines part the entries; values can stand above or below the molecule they belong to.

Columns and labels:
[1] = target: Receptor-type tyrosine-protein kinase FLT3 (Homo sapiens) (UniProt P36888); assay: Inhibition of Flt3 at 10 uM
[2] = target: Tyrosine-protein kinase ITK/TSK (Homo sapiens, UniProt Q08881); assay: Inhibition of Itk
[3] = target: T1, Proto-oncogene tyrosine-protein kinase Src (Homo sapiens, UniProt P12931); assay: Inhibition of cSrc at 10 uM
[4] = Half life in Han Wistar rat at 10 mg/kg, po and 3 mg/kg, iv; assay type: ADME, organism-based; conditions: in vivo
in vivo = conditions: Han Wistar, rat, iv, 3 mg/kg
Description: Clearance in Han Wistar rat at 10 mg/kg, po and 3 mg/kg, iv

[5] = target: T2, Tyrosine-protein kinase Fgr (Homo sapiens, UniProt P09769); assay: Inhibition of Fgr at 10 uM
[6] = target: T3, ALK tyrosine kinase receptor (Homo sapiens, UniProt Q9UM73); assay: Inhibition of ALK at 10 uM
[7] = target: T4, Serine/threonine-protein kinase WNK3 (Homo sapiens, UniProt Q9BYP7); conditions: 10 uM
T4 sequence (Q9BYP7 whole entry): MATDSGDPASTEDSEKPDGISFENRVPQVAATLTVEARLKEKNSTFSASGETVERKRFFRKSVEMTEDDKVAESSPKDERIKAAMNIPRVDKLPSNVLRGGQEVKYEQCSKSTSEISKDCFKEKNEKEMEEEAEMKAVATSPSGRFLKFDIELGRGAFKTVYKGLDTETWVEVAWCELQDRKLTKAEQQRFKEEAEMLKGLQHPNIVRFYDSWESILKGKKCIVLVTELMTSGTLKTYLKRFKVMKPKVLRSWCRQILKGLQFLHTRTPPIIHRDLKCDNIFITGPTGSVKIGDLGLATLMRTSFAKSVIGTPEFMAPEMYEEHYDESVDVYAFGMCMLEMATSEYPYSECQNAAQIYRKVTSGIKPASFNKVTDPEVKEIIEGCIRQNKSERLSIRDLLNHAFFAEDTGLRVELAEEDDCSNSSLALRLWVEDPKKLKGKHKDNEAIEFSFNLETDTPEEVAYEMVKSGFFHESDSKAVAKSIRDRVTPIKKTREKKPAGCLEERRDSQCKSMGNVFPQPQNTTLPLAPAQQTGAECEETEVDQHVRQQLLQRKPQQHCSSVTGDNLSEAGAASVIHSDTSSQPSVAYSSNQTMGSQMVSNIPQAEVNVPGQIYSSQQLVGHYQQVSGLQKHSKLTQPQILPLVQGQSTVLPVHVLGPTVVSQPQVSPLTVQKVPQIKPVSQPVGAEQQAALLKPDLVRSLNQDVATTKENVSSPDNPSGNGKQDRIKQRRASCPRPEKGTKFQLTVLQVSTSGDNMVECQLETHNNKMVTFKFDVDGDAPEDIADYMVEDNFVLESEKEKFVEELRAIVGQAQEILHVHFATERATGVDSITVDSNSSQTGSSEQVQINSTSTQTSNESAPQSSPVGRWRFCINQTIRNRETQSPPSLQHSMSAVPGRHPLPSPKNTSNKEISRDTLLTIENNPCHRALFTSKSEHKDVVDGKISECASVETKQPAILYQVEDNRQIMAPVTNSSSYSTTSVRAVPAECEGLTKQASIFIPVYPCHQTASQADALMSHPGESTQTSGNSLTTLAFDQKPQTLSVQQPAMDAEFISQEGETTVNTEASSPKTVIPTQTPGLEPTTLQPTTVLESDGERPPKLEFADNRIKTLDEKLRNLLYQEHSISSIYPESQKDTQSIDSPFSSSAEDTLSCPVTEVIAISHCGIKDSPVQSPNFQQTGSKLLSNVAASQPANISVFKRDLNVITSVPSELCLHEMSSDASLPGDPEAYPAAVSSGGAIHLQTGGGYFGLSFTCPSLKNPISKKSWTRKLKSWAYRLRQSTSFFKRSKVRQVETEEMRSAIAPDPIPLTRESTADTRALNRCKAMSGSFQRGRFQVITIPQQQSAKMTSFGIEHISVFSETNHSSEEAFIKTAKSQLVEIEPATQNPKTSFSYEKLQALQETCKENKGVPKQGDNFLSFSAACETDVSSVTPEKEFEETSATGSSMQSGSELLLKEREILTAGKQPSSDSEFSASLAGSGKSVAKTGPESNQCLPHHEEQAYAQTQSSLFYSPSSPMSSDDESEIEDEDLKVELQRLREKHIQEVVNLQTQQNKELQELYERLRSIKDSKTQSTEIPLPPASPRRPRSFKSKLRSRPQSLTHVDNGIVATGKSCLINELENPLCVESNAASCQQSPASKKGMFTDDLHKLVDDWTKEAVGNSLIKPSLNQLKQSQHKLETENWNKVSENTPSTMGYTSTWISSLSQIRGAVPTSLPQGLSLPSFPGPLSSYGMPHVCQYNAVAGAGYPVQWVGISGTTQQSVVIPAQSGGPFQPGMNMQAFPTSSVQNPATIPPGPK
Description: Inhibition of WNK3 at 10 uM

[8] = target: T5, Tyrosine-protein kinase JAK2 (Homo sapiens, UniProt O60674); assay: Inhibition of JAK2
T5 sequence (O60674 whole entry, canonical isoform): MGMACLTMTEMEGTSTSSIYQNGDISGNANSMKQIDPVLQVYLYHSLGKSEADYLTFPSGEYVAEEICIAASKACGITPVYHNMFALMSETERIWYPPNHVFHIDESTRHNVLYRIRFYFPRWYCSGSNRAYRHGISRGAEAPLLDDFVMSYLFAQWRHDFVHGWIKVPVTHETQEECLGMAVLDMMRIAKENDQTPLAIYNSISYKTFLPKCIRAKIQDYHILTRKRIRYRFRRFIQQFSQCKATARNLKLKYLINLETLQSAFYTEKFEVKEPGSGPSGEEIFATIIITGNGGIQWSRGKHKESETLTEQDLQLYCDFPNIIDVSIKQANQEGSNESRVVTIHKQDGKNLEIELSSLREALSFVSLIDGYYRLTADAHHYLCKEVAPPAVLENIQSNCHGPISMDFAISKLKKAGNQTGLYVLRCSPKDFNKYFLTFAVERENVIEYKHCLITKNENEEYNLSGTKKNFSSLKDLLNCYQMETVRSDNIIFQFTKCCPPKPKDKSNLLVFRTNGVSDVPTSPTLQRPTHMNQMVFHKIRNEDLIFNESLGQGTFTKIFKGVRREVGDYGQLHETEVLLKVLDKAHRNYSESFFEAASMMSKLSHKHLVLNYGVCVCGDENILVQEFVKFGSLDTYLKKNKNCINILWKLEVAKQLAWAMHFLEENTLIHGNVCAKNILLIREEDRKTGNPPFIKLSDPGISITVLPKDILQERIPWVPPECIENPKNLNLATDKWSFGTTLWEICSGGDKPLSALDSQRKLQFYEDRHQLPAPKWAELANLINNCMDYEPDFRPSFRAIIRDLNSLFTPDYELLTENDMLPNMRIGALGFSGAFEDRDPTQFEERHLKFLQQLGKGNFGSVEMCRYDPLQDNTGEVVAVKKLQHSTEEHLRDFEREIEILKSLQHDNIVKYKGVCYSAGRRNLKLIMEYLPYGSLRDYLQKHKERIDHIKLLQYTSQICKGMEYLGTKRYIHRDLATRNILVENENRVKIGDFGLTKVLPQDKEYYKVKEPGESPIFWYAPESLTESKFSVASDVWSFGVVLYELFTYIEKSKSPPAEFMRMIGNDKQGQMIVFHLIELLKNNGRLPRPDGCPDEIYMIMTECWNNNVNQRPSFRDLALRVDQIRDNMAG

[9] = target: Phosphorylase b kinase gamma catalytic chain, liver/testis isoform (Homo sapiens) (UniProt P15735); assay: Inhibition of PhKg2 at 10 uM
[10] = target: T5, Tyrosine-protein kinase JAK2; assay: Inhibition of JAK2 at 10 uM
[11] = target: Phosphorylase b kinase gamma catalytic chain, liver/testis isoform (Homo sapiens, UniProt P15735); assay: Inhibition of PhKg2
[12] = target: T2, Tyrosine-protein kinase Fgr; assay: Inhibition of Fgr
[13] = target: T6, Vascular endothelial growth factor receptor 3 (Homo sapiens, UniProt P35916); assay: Inhibition of FLT4
[14] = target: T6, Vascular endothelial growth factor receptor 3; assay: Inhibition of FLT4 at 10 uM
[15] = target: T7, High affinity nerve growth factor receptor (Homo sapiens, UniProt P04629); assay: Inhibition of TrkA
Focal adhesion kinase 1 [16] = target: T8, Focal adhesion kinase 1 (Homo sapiens, UniProt Q05397); assay: Inhibition of FAK
[17] = Oral bioavailability in Han Wistar rat at 10 mg/kg; assay type: ADME, organism-based; conditions: in vivo
[18] = target: T9, Mitogen-activated protein kinase 14 (Homo sapiens, UniProt Q16539); assay: Inhibition of SAPK2a
T9 sequence (Q16539 whole entry): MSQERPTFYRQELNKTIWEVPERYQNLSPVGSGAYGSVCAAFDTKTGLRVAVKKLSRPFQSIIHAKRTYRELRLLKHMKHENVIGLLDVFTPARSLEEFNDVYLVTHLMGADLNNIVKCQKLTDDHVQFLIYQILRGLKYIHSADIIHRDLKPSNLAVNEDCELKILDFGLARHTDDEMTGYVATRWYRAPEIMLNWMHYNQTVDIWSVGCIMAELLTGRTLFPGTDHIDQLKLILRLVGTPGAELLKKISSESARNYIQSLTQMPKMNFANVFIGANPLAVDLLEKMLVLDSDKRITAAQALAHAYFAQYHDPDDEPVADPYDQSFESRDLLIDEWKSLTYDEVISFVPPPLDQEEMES

[19] = target: T10, Tyrosine-protein kinase ABL1 (Homo sapiens, UniProt P00519); conditions: 10 uM
Description: Inhibition of Abl at 10 uM

in vitro [20] = conditions: rat, hepatocytes
Description: Intrinsic clearance in rat hepatocytes assessed per million cells by LC/MS/MS analysis

[21] = target: Testis-specific serine/threonine-protein kinase 2 (Homo sapiens, UniProt Q96PF2); assay: Inhibition of TSSK2
[22] = target: Testis-specific serine/threonine-protein kinase 2 (Homo sapiens) (UniProt Q96PF2); conditions: 10 uM
Description: Inhibition of TSSK2 at 10 uM

[23] = target: BDNF/NT-3 growth factors receptor (Homo sapiens, UniProt Q16620); assay: Inhibition of TrkB
Focal adhesion kinase 1 [24] = target: T8, Focal adhesion kinase 1; assay: Inhibition of FAK at 10 uM
[25] = target: T10, Tyrosine-protein kinase ABL1; assay: Inhibition of Abl
[26] = target: T1, Proto-oncogene tyrosine-protein kinase Src; assay: Inhibition of cSrc
[27] = target: T4, Serine/threonine-protein kinase WNK3; assay: Inhibition of WNK3
[28] = target: T11, Mitogen-activated protein kinase kinase kinase 9 (Homo sapiens, UniProt P80192); assay: Inhibition of MLK1 at 10 uM
[29] = target: T7, High affinity nerve growth factor receptor; conditions: 10 uM
Description: Inhibition of TrkA at 10 uM

[30] = target: T9, Mitogen-activated protein kinase 14; assay: Inhibition of SAPK2a at 10 uM
[31] = target: T3, ALK tyrosine kinase receptor; assay: Inhibition of ALK
[32] = target: T12, Fibroblast growth factor receptor 1 (Homo sapiens, UniProt P11362); assay: Inhibition of FGFR1 at 10 uM
[33] = target: T13, Tyrosine-protein kinase BTK (Homo sapiens, UniProt Q06187); assay: Inhibition of BTK at 10 uM
T13 sequence (Q06187 whole entry): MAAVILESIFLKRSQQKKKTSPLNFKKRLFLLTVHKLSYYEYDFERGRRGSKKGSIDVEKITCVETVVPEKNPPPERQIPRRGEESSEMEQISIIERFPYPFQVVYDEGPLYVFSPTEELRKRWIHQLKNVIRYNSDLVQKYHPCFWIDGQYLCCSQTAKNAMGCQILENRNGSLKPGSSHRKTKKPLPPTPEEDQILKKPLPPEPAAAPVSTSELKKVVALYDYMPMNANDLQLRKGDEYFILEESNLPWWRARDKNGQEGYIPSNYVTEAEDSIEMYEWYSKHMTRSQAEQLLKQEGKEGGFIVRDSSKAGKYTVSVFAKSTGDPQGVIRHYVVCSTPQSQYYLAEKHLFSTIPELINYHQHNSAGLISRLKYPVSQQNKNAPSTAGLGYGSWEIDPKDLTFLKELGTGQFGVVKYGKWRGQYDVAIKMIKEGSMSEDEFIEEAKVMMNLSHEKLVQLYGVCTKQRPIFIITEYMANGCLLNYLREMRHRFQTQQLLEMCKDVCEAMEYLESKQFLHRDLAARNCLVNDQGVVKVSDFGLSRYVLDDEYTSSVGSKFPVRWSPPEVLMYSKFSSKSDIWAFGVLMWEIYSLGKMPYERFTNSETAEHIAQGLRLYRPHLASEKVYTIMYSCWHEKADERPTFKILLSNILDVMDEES

[34] = target: Voltage-gated inwardly rectifying potassium channel KCNH2 (Homo sapiens, UniProt Q12809)
Sequence of Voltage-gated inwardly rectifying potassium channel KCNH2 (Q12809 whole entry): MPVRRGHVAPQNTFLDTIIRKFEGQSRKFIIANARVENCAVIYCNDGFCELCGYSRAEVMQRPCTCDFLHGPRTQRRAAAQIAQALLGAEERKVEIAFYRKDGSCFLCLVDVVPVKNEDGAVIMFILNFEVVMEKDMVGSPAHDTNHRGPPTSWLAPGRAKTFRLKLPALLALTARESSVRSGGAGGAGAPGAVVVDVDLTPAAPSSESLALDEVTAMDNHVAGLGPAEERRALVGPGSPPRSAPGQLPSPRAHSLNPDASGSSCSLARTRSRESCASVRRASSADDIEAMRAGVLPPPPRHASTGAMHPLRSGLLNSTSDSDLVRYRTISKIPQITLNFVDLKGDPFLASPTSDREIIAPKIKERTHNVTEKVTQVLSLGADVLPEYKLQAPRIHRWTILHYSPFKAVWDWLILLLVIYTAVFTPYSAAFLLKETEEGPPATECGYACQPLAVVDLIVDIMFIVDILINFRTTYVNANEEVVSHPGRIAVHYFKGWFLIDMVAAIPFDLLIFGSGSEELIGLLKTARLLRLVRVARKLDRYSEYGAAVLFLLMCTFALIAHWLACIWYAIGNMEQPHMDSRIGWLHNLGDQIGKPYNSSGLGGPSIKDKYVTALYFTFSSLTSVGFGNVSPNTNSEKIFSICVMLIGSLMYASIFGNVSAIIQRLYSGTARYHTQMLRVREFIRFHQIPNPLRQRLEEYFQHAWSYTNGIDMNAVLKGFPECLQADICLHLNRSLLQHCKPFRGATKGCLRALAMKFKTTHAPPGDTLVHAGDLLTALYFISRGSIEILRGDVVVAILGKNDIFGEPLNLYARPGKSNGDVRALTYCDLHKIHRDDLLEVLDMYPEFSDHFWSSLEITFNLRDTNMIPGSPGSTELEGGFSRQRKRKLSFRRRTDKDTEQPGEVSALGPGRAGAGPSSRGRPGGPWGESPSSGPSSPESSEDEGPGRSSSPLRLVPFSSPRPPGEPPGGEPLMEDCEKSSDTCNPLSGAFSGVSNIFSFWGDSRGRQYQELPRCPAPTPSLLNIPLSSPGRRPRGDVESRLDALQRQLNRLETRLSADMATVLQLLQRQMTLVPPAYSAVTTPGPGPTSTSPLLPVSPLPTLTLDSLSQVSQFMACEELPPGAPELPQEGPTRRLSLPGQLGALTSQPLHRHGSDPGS

[35] = target: T14, Serine/threonine-protein kinase SIK1 (Homo sapiens, UniProt P57059); assay: Inhibition of SIK
[36] = target: Tyrosine-protein kinase ITK/TSK (Homo sapiens) (UniProt Q08881); assay: Inhibition of Itk at 10 uM
[37] = target: Proto-oncogene tyrosine-protein kinase receptor Ret (Homo sapiens, UniProt P07949); assay: Inhibition of Ret
[38] = target: Receptor-type tyrosine-protein kinase FLT3 (Homo sapiens, UniProt P36888); assay: Inhibition of Flt3
[39] = target: T13, Tyrosine-protein kinase BTK; assay: Inhibition of BTK
[40] = target: Tyrosine-protein kinase Lck (Homo sapiens, UniProt P06239); assay: Inhibition of Lck
[41] = target: T11, Mitogen-activated protein kinase kinase kinase 9; assay: Inhibition of MLK1
[42] = target: T14, Serine/threonine-protein kinase SIK1; assay: Inhibition of SIK at 10 uM
in vitro [43] = conditions: human, plasma
Description: Fraction unbound in human plasma

[44] = target: T12, Fibroblast growth factor receptor 1; assay: Inhibition of FGFR1
[45] = target: Muscle, skeletal receptor tyrosine-protein kinase (Homo sapiens, UniProt O15146); assay: Inhibition of MuSk
physchem = conditions: buffer
Description: Aqueous solubility of the compound

NIH3T3 [46] = assay: animal or person; conditions: Mus musculus, NIH3T3, po, 168 h, read-out: TGI
Description: Antitumor activity against 3T3 cells overexpressing constitutively active TRKA allografted in CrTac:Ncr-Foxn1nu mouse assessed as tumor growth inhibition at 1 mg/kg, po BID for 7 days

NIH3T3 [47] = assay: Antitumor activity against 3T3 cells overexpressing constitutively active TRKA allografted in CrTac:Ncr-Foxn1nu mouse assessed as tumor growth delay time at 25 mg/kg, po BID for 7 days; assay type: functional
NIH3T3 [48] = assay: Antitumor activity against 3T3 cells overexpressing constitutively active TRKA allografted in CrTac:Ncr-Foxn1nu mouse assessed as tumor regression at 5 mg/kg, po BID for 7 days; assay type: functional
NIH3T3 [49] = assay: Antitumor activity against 3T3 cells overexpressing constitutively active TRKA allografted in CrTac:Ncr-Foxn1nu mouse assessed as tumor regression at 25 mg/kg, po BID for 7 days; assay type: functional
Mus musculus [50] = assay: Toxicity in 3T3 cells overexpressing constitutively active TRKA allografted CrTac:Ncr-Foxn1nu mouse assessed as weight loss at 1 to 25 mg/kg, po BID for 7 days; assay type: organism-based, NIH3T3; design: dose 1-25 mg/kg, route oral; conditions: in vivo, 168 h
[51] = Oral bioavailability in beagle dog at 10 mg/kg; assay type: ADME, organism-based, Canis lupus familiaris; conditions: in vivo
[52] = Clearance in beagle dog at 10 mg/kg, po and 2 mg/kg, iv; assay type: ADME, organism-based, Canis lupus familiaris; conditions: in vivo
[53] = Half life in beagle dog at 10 mg/kg, po and 2 mg/kg, iv; assay type: ADME, organism-based, Canis lupus familiaris; conditions: in vivo
Mus musculus [54] = assay: Toxicity in 3T3 cells overexpressing constitutively active TRKA allografted CrTac:Ncr-Foxn1nu mouse assessed as weight loss at 1 to 5 mg/kg, po BID for 7 days; assay type: organism-based, NIH3T3; design: dose 1-5 mg/kg, route oral; conditions: in vivo, 168 h
NIH3T3 [55] = assay: Antitumor activity against 3T3 cells overexpressing constitutively active TRKA allografted in CrTac:Ncr-Foxn1nu mouse assessed as tumor stasis at 5 mg/kg, po BID for 7 days; assay type: functional

Structure (SMILES): C[C@H](Nc1ccc2ncn(-c3cc(C4CC4)[nH]n3)c2n1)c1ncc(F)cn1
- half-life [4]: 1.2 h
- clearance (in vivo): 39 mL/min/kg
- solubility (physchem): 590 µM (≈ 215 µg/mL)
- bioavailability [17]: 33%
- hepatocyte CLint (in vitro [20]): 48 µL/min/1e6 cells
- fraction unbound (in vitro [43]): 0.16

Structure (SMILES): CC(C)Oc1cc(-n2cnc3cnc(N[C@@H](C)c4ncc(F)cn4)nc32)n[nH]1
- half-life [4]: 3.8 h
- clearance (in vivo): 130 mL/min/kg
- solubility (physchem): 480 µM (≈ 184 µg/mL)
- bioavailability [17]: 29%
- hepatocyte CLint (in vitro [20]): 24 µL/min/1e6 cells
- IC50 [34]: > 32 µM
- fraction unbound (in vitro [43]): 0.31

Structure (SMILES): COc1cc(Nc2nc3c(cc2F)ncn3[C@@H](CO)c2ccc(F)cn2)n[nH]1
- half-life [4]: 3.2 h
- clearance (in vivo): 33 mL/min/kg
- solubility (physchem): 150 µM (≈ 58.1 µg/mL)
- bioavailability [17]: 41%
- hepatocyte CLint (in vitro [20]): 29 µL/min/1e6 cells
- IC50 [34]: > 32 µM

Continued, in another order:

- inhibition [1]: > 30%
- IC50 [2]: 0.0722 µM
- inhibition [3]: > 30%
- half-life [4]: 0.97 h
- clearance (in vivo): 41 mL/min/kg
- inhibition [5]: > 30%
- inhibition [6]: > 30%
- inhibition [7]: > 30%
- IC50 [8]: 0.0683 µM
- inhibition [9]: > 30%
- inhibition [10]: > 30%
- IC50 [11]: 0.0061 µM
- IC50 [12]: 0.0022 µM
- IC50 [13]: 0.064 µM
- inhibition [14]: > 30%
- IC50 [15]: 0.0014 µM
- IC50 (Focal adhesion kinase 1 [16]): 0.0172 µM
- bioavailability [17]: 6.7%
- IC50 [18]: 0.0134 µM
- inhibition [19]: > 30%
- hepatocyte CLint (in vitro [20]): 42 µL/min/1e6 cells
- IC50 [21]: 0.0306 µM
- inhibition [22]: > 30%
- IC50 [23]: < 0.1 µM
- inhibition (Focal adhesion kinase 1 [24]): > 30%
- IC50 [25]: 0.0012 µM
- IC50 [26]: 0.0182 µM
- IC50 [27]: 0.0998 µM
- inhibition [28]: > 30%
- inhibition [29]: > 30%
- inhibition [30]: > 30%
- IC50 [31]: 0.0341 µM
- inhibition [32]: > 30%
- inhibition [33]: > 30%
- IC50 [35]: 0.0055 µM
- inhibition [36]: > 30%
- IC50 [37]: < 0.1 µM
- IC50 [38]: 0.0021 µM
- IC50 [39]: 0.0035 µM
- IC50 [40]: < 0.1 µM
- IC50 [41]: 0.0443 µM
- inhibition [42]: > 30%
- fraction unbound (in vitro [43]): 0.06
- IC50 [44]: 0.0087 µM
- IC50 [45]: < 0.1 µM
Structure (SMILES): CC(C)Oc1cc(-n2cnc3ccc(N[C@@H](C)c4ccc(F)cn4)nc32)n[nH]1
- IC50 [34]: > 32 µM

- half-life [4]: 1.2 h
- clearance (in vivo): 51 mL/min/kg
- solubility (physchem): 220 µM (≈ 91.4 µg/mL)
- bioavailability [17]: 54%
- hepatocyte CLint (in vitro [20]): 31 µL/min/1e6 cells
- fraction unbound (in vitro [43]): 0.058
Structure (SMILES): CC(C)Oc1cc(Nc2nc3c(cc2F)ncn3[C@@H](CO)c2ccc(F)cn2)n[nH]1
- inhibition in vivo at 1 mg/kg (NIH3T3 [46]): 30%
- Time (NIH3T3 [47]): 4 days
- Activity (NIH3T3 [48]): -51%
- Activity (NIH3T3 [49]): -63%
- Activity (Mus musculus [50]): < 5%

- half-life [4]: 0.82 h
- clearance (in vivo): 45 mL/min/kg
- solubility (physchem): > 1000 µM
- bioavailability [17]: 92%
- fraction unbound (in vitro [43]): 0.39
Structure (SMILES): Cc1cc(-n2cnc3ccc(N[C@@H](C)c4ncc(F)cn4)nc32)n[nH]1
- IC50 [34]: > 32 µM

- bioavailability [51]: 17%
- clearance [52]: 15.2 mL/min/kg
- half-life [4]: 2.3 h
- clearance (in vivo): 46 mL/min/kg
- solubility (physchem): 250 µM (≈ 99.4 µg/mL)
- bioavailability [17]: 29%
- hepatocyte CLint (in vitro [20]): 13 µL/min/1e6 cells
- half-life [53]: 1 h
- fraction unbound (in vitro [43]): 0.081
Structure (SMILES): CC(C)Oc1cc(-n2cnc3ccc(N[C@@H](CO)c4ccc(F)cn4)nc32)n[nH]1
- inhibition in vivo at 1 mg/kg (NIH3T3 [46]): 12%
- IC50 [34]: 52 µM
- Activity (Mus musculus [54]): < 5%
- Activity (NIH3T3 [55]): -47%
